Reference: patent US20210132041A1, “TARGET FOR DRUG TREATMENT OF TUMOR METASTASIS AND USE THEREOF” (PEKING UNIVERSITY, priority 2018, published 2021)

Legend:
B16-F10 cells [1] = assay: MTS cell proliferation assay; type: cell-based, mouse; conditions: FIG. 1, in vitro
Description: MTS: Same numbers of PRAK WT and KO cells were plated on 96-well plates. Cell Titer 96 Aqueous cell proliferation detection solution was added at different time points after the cells adhered to the walls. After incubation at 37° C. for 1 to 4 hours, the absorbance was measured at 490 nm and the cell proliferation curve was drawn.

B16-F10 cells [2] = assay: AnnexinV/7-AAD staining, apoptosis by flow cytometry; type: cell-based, mouse; conditions: FIG. 2; 0.1 μM and 1 μM, 24 hours
Description: AnnexinV/7-AAD staining: Cells were plated on 24-well plates. 0.1 μM and 1 μM of PRAK inhibitor-23 were added for treatment after the cells adhered to the walls. After 24 hours, the cells were harvested for Annexin V/7-AAD staining, and the cell apoptosis was analyzed by flow cytometry.

B16-F10 tumors = assay: Growth of subcutaneously inoculated B16-F10 tumors in C57BL/6 mice; type: in vivo, mouse; conditions: FIG. 5, 2 mg/kg/d intraperitoneal
Description: 3. Effects on tumor growth in situ Experimental procedure: The C57BL/6 female mice of 6 to 8 week old (commercially available, for example, from Charles River) were selected for the experiment. The B16-F10 cells in the logarithmic growth phase were digested, and washed twice with PBS. After counting, the cells were resuspended in PBS at a density of 1.5×10^6/ml. The tumor cells (3×10^5 cells in 200 μL) were subcutaneously inoculated into the lateral ribs of mice. The drug-treated group was intraperitoneally injected with PRAK inhibitor-23 at 2 mg/kg/d.
The long diameter (L) and short diameter (S) of the tumor were measured with vernier calipers every two days, the tumor size was calculated with the formula L×S×S×0.5, and the tumor growth curve was drawn.

[3] = system: spontaneous breast tumors; assay: Incidence and growth of spontaneous breast tumors in MMTV-PyMT mice; type: in vivo, mouse; conditions: FIG. 12, 1 mg/kg every other day from 12th week, week 15
Description: The MMTV-PyMT mice were crossed with PRAK mice to obtain MMTV-PRAK WT and MMTV-PRAK knockout mice. From 8 to 10 weeks, the occurrence of breast tumors was observed. Another group of MMTV-PRAK WT mice were given PRAK inhibitor (1 mg/kg) every other day from the 12th week. At week 15, the mice were sacrificed, breast tumor nodules were counted and weighed, and lung tumor nodules were counted at the same time.

O=C1NCc2cc(-c3cnc(Nc4ccc(N5CCOCC5)cc4)c4nccn34)ccc21 [PRAK inhibitor-23, 5-(8-((4-morpholinylphenyl)amino)imidazo [1,2-a]pyrazin-5-yl) isoindol-1-one]
no significant effect: effect on the proliferation of B16-F10 cells (B16-F10 cells [1]) | effect on the apoptosis of B16-F10 cells (B16-F10 cells [2]) | effect on the growth of subcutaneously inoculated B16-F10 tumors at the injection site (B16-F10 tumors) | effect on the incidence and growth of spontaneous breast tumors [3]
